Patent US20090023755A1, “USE OF ISTRADEFYLLINE FOR TREATING BEHAVIORAL DISORDERS” (KYOWA HAKKO KOGYO CO., LTD., priority 2002, published 2009)

Assays:
[1] = tested on: 6-hydroxydopamine-treated neonatal rats; assay: Locomotor activity in 6-hydroxydopamine-treated neonatal rats; assay type: in vivo, rat
Method: Methods: Female neonatal SD rats were used for the experiments. 100 μg 6-Hydroxydopamine (6-HODA) was dissolved in a 0.1% solution of ascorbic acid in saline, and the obtained solution or 0.1% ascorbic acid in saline (control) was injected first at 3 days of age into the left lateral ventricle of the rat and secondly at 6 days of age into the right lateral ventricle of the rat. At 30-37 days, locomotor activity was measured by placing the rat in a transparent acrylic box (50×50×50 cm) 60 minutes after the drug administration using digital counters with infrared sensors (Scanet MV-10MT; Toyo Sangyo Co. Ltd., Toyama, Japan).
Compound (I) was suspended in a 0.3% aqueous Tween 80 solution, and administered orally to 6-HODA treated rats.

[2] = tested on: 6-hydroxydopamine-treated young rats; assay: Tic/Tourette like symptoms in 6-hydroxydopamine-treated young rats; assay type: in vivo, rat
Method: Methods: 6-HODA was injected into the left medial forebrain bundle of a rat to induce a unilateral lesion of dopaminergic neurons, followed by repeated oral administration of L-DOPA at 20 mg/kg twice daily for 2 weeks to make a rat model of tic-like symptoms.
Tic-like, abnormal involuntary movements were observed after day 3 during repetitive treatment with L-DOPA. Two subtypes of involuntary movements were classified as axial (lateral torsion of the head, neck and trunk towards the side contralateral to the lesion, including swing of the head) and forelimb (abnormal movements contralateral to the lesion, including kicking movements of the forelimb).
The severity of these movements was assigned a score from 0 to 4 to each movement as follows.
(score 0) no deviation of head
(score 1) lateral deviation of head: […]
(score 2) lateral deviation of head: more than 30°, and 60° or less
(score 3) torsion of head and upper trunk: more than 60°, and 90° or less
(score 4) torsion of head and trunk: more than 90°
(score 0) no movements of both distal and proximal forelimbs
(score 1) tiny oscillatory movements of the distal forelimb
(score 2) movements of low amplitude but causing visible translocation of both distal and proximal forelimbs
(score 3) translocation of the whole limb with visible contraction of shoulder muscles
(score 4) vigorous limb and shoulder movements of maximal amplitude
Compound (I) was repeatedly administered orally to 6-HODA treated rats at 1 mg/kg for 23 days, and Tic-like, abnormal involuntary movements were observed every 10 minutes for 3 hours, each time for one minute.
Peak score was obtained by adding the peak score for forelimb to that for axial (Data are expressed as mean±standard deviation in the following Table 1). Peak time means the time after the first administration when peak score was score observed.

young rats = assay: Acquisition of a delayed alternation task in young rats; assay type: in vivo, rat; details: for Choice reaction times per session (mean ± s.e.m.) / Simple reaction times per session (mean ± s.e.m.): 0.3 mg/kg p.o. -60 min
Method: The following experiment was carried out according to a method described in Drug Dev. Res., 35, p. 83-95 (1996) with a slight modification. Methods: Male Rj: Wistar (Han) rats were used for the experiments. Before being tested, the rats were given the standard diet each day. Several 45 mg food pellets (these were also used in the delayed alternation sessions described below) were also given them to habituate them to this novel food.
The aim of this phase is to train rats, on the presentation of a single centralized retractable lever, to press on it to receive a food pellet.
The rats were subjected to 10 lever-pressing acquisition sessions in the experimental chambers according to a fixed ratio (FR1) schedule of reinforcement. Reinforcement consists of food pellets (45 mg) delivered after each lever-press. Each daily session lasts 15 minutes. All rats received an intraperitoneal administration of physiological saline 30 minutes before each session. During the first 7 sessions, the Skinner boxes were equipped with only one fixed lever situated centrally above the food receptacle, to avoid spatial preference for the right or the left side of the experimental panel. After the 7th lever-pressing session, the boxes were equipped with two retractable levers located on either side of the food receptacle. The rats were then subjected to 3 consecutive sessions in which the left or the right lever was pseudo-randomly presented every 5 seconds. At the end of this phase 80 to 100% of the rats acquired the lever press-response. […] If some rats were close to establishing steady lever-pressing behavior they were given extra training with the aim of attaining at least 10 rats per group. Rats were assigned to treatment groups matched on the basis of their performance.
Subsequent to lever-press acquisition sessions, all rats were subjected to delayed alternation sessions. The test was conducted for 5 days. During this phase, the boxes were equipped with two retractable levers on each side of the food distributor. Each session consisted of 35 successive trials every 10 seconds. In each trial, the rat was first presented with one lever (left or right). When the rat pressed on the lever, the rat was given a food pellet, the lever was retracted and 5 seconds later two levers were presented. The rat had to learn to press on the lever opposite to that previously presented to gain a food pellet (non-matching to sample).
Compound (I) was suspended in 0.5% methylcellulose in distilled water and administered orally 60 minutes before each session.
The effect of Compound (I) was evaluated by measuring simple reaction time, which means the reaction time to each one-lever presentation, and choice reaction time, which means the reaction time to each two-lever presentation.

dd-strain male mice = assay: Acute toxicity test; assay type: in vivo; details: oral administration, mortality seven days after administration
Excerpt: Compound (I) was orally or intraperitoneally administered to groups of dd-strain male mice weighing 20±1 g, each group consisting of three mice.

[3] = 1 mg/kg orally, compared with before administration
[4] = 0.3 mg/kg orally, compared with vehicle control rats

Compound: CCn1c(=O)c2c(nc(/C=C/c3ccc(OC)c(OC)c3)n2C)n(CC)c1=O [Compound (I), (E)-8-(3,4-dimethoxystyryl)-1,3-diethyl-7-methylxanthine]
- locomotor activity ([1]; 6-HODA treated rats, 1.25 mg/kg orally, measured 60 minutes after administration): decreased locomotor activities
- locomotor activity ([1]; 6-HODA treated rats, 5 mg/kg orally, measured 60 minutes after administration): decreased locomotor activities
- locomotor activity ([1]; control rats treated only with 0.1% ascorbic acid in saline (vehicle), oral): increased locomotor activities
- peak score [2, 3]: decreased
- peak time [2, 3]: decreased
- peak time ([2]; L-DOPA + compound 1 mg/kg p.o., Day 1): 30 min
- peak score ([2]; L-DOPA + compound 1 mg/kg p.o., Day 1, n = 6, mean ± standard deviation, forelimb + axial): 5.6 ± 1.4
- peak time ([2]; L-DOPA + compound 1 mg/kg p.o., Day 9): 40 min
- peak score ([2]; L-DOPA + compound 1 mg/kg p.o., Day 9, n = 6, mean ± standard deviation, forelimb + axial): 4.4 ± 1.6
- peak time ([2]; L-DOPA + compound 1 mg/kg p.o., Day 23): 20 min
- peak score ([2]; L-DOPA + compound 1 mg/kg p.o., Day 23, n = 6, mean ± standard deviation, forelimb + axial): 1.6 ± 0.6
- choice reaction times (young rats; [4]): significantly decreased
- simple reaction times (young rats; [4]): significantly decreased
- Choice reaction times per session (mean ± s.e.m.) (young rats; session S1): 1.71 ± 0.13 s
- Simple reaction times per session (mean ± s.e.m.) (young rats; session S1): 3.16 ± 0.24 s
- Choice reaction times per session (mean ± s.e.m.) (young rats; session S2): 1.52 ± 0.10 s
- Simple reaction times per session (mean ± s.e.m.) (young rats; session S2): 2.49 ± 0.28 s
- Choice reaction times per session (mean ± s.e.m.) (young rats; session S3): 1.22 ± 0.12 s
- Simple reaction times per session (mean ± s.e.m.) (young rats; session S3): 1.63 ± 0.20 s
- Choice reaction times per session (mean ± s.e.m.) (young rats; session S4): 1.13 ± 0.18 s
- Simple reaction times per session (mean ± s.e.m.) (young rats; session S4): 1.73 ± 0.21 s
- Choice reaction times per session (mean ± s.e.m.) (young rats; session S5): 0.92 ± 0.09 s
- Simple reaction times per session (mean ± s.e.m.) (young rats; session S5): 1.33 ± 0.11 s
- minimum lethal dose (MLD) (dd-strain male mice): greater than 1000 mg/kg
